Consider three compounds from patent US4443436A, “C-20-Modified macrolide derivatives of the macrolide antibiotics tylosin, desmycosin, macrocin, and lactenocin” (Eli Lilly and Company, priority 1982, dated 1984).

Experiment [1] concerns Staphylococcus aureus X1.1. Description: MIC, standard agar-dilution assay, Staphylococcus aureus X1.1. Format: cell-based.
For experiment [2], the system named is Staphylococcus aureus V41. As to the kind of experiment: MIC, standard agar-dilution assay, Staphylococcus aureus V41. Format: cell-based. Conditions: Staphylococcus aureus, V41.
Experiment [3] has as its system Staphylococcus aureus X400. Description: MIC, standard agar-dilution assay, Staphylococcus aureus X400. Format: cell-based.
The test system of experiment [4] is Staphylococcus aureus S13E. Description: MIC, standard agar-dilution assay, Staphylococcus aureus S13E. Format: cell-based.
The test system of experiment [5] is Staphylococcus epidermidis EPI1. As to the kind of experiment: MIC, standard agar-dilution assay, Staphylococcus epidermidis EPI1. Format: cell-based.
Experiment [6] concerns Staphylococcus epidermidis EPI2. As to the kind of experiment: MIC, standard agar-dilution assay, Staphylococcus epidermidis EPI2. Format: cell-based.
Experiment [7] deals with Streptococcus pyogenes C203. Description: MIC, standard agar-dilution assay, Streptococcus pyogenes C203. Format: cell-based.
The subject of experiment [8] is Streptococcus pneumoniae Park I. Description: microbe, parasite or virus in culture. Format: cell-based.
Experiment [9] concerns Streptococcus Group D X66. Description: MIC, standard agar-dilution assay, Streptococcus Group D X66. Format: cell-based.
Another experiment concerns Streptococcus Group 9960. As to the kind of experiment: MIC, standard agar-dilution assay, Streptococcus Group 9960. Format: cell-based. The settings on record: Streptococcus Group 9960, agar dilution.
For experiment [10], the system named is Haemophilus influenzae Holt. As to the kind of experiment: MIC, standard agar-dilution assay, Haemophilus influenzae Holt. The settings on record: Haemophilus influenzae Holt, ampicillin-sensitive strain. Format: cell-based.
Experiment [11] relates to Haemophilus influenzae R252. Description: MIC, standard agar-dilution assay, Haemophilus influenzae R252. Conditions: Haemophilus influenzae R252, ampicillin-resistant strain. Format: cell-based.
The subject of a further experiment is Staphylococcus aureus. Description: MIC, broth-dilution microtiter test, Staphylococcus aureus. Format: cell-based. The text has this:
(§1) The MIC's in Table X were obtained using conventional broth-dilution microtiter tests.

The next experiment concerns Streptococcus bovis 80. As to the kind of experiment: MIC, broth-dilution microtiter test, Streptococcus bovis 80. Format: cell-based. The settings on record: Streptococcus bovis 80, broth-dilution microtiter.
Excerpt: as §1

In experiment [12] the test system is Pasteurella multocida 17E. As to the kind of experiment: MIC, broth-dilution microtiter test, Pasteurella multocida 17E. Format: cell-based. Conditions: Pasteurella multocida 17E, bovine isolate, broth-dilution microtiter.
Excerpt: as §1

The test system of experiment [13] is Pasteurella multocida 60A. Description: MIC, broth-dilution microtiter test, Pasteurella multocida 60A. Format: cell-based. The settings on record: Pasteurella multocida 60A, avian isolate, broth-dilution microtiter.
Excerpt: as §1

In experiment [14] the test system is Pasteurella hemolytica 22C. As to the kind of experiment: MIC, broth-dilution microtiter test, Pasteurella hemolytica 22C. Format: cell-based. The settings on record: Pasteurella hemolytica 22C, broth-dilution microtiter.
Excerpt: as §1

The test system of a further experiment is Mycoplasma gallisepticum. As to the kind of experiment: MIC, broth-dilution microtiter test, Mycoplasma gallisepticum. Format: cell-based.
Excerpt: as §1

The next experiment relates to Mycoplasma synoviae. Description: MIC, broth-dilution microtiter test, Mycoplasma synoviae. Format: cell-based.
Excerpt: as §1

The next experiment deals with Mycoplasma hyorhinis. Description: MIC, broth-dilution microtiter test, Mycoplasma hyorhinis. Format: cell-based. The settings on record: Mycoplasma hyorhinis, broth-dilution microtiter.
Excerpt: as §1

Another experiment has as its system Mycoplasma hyopneumoniae. Description: MIC, broth-dilution microtiter test, Mycoplasma hyopneumoniae. Format: cell-based.
Excerpt: as §1

Experiment [15] has as its system Streptococcus pyogenes C203. As to the kind of experiment: In vivo protection of mice experimentally infected with S. pyogenes C203. Conditions: mice, doses given 1 and 4 hours post-infection. How it is done:
The C-20 modified derivatives of this invention have shown in vivo antimicrobial activity against experimentally-induced infections in laboratory animals. When two doses of test compound were administered to mice experimentally infected with S. pyogenes C203, the activity observed was measured as an ED50 value [effective dose in mg/kg to protect 50% of the test animals: see Warren Wick, et al., J. Bacteriol. 81, 233-235 (1961)].

The mark [16] stands for this setting: Staphylococcus epidermidis, EPI2.
Setting [17] is: Streptococcus equinus, read-out: MIC.

In brackets after ≈: the same amount, converted by molar mass. Where two headings read alike, the source gives them in different places. Bounds are passed on as bounds.

`CCC1OC(=O)CC(O)C(C)C(OC2OC(C)C(OC3CC(C)(O)C(O)C(C)O3)C(N(C)C)C2O)C(CCOc2ccc(C=O)cc2)CC(C)C(=O)C=CC(C)=CC1COC1OC(C)C(O)C(OC)C1OC` (stereo not drawn) [Compound 17, 20-DH-20-O-(p-Formylphenyl)tylosin]: the MIC in experiment [1] (Staphylococcus aureus, X1.1) came out at 1 µg/mL (≈ 0.978 µM); in experiment [2], 1 µg/mL (≈ 0.978 µM); in experiment [3] (Staphylococcus aureus, X400) it was 2 µg/mL (≈ 1.96 µM); in experiment [4] (Staphylococcus aureus, S13E), 1 µg/mL (≈ 0.978 µM); in experiment [5] (Staphylococcus epidermidis, EPI1), 1 µg/mL (≈ 0.978 µM); in experiment [6] (setting [16]), 0.5 µg/mL (≈ 0.489 µM). Besides, the MIC in experiment [7] (Streptococcus pyogenes, C203) was 1 µg/mL (≈ 0.978 µM); in experiment [8] (Streptococcus pneumoniae Park I, agar dilution, read-out: MIC), 16 µg/mL (≈ 15.7 µM); in experiment [9], 128 µg/mL (≈ 125 µM); with Streptococcus Group 9960 (GROUP9960, read-out: MIC) it was above 128 µg/mL; in experiment [10] (read-out: MIC), above 128 µg/mL; in [11] (read-out: MIC), above 128 µg/mL. Moreover, the MIC in the experiment on Staphylococcus aureus was 1.56 µg/mL (≈ 1.53 µM); with Streptococcus bovis 80 (setting [17]), 50 µg/mL (≈ 48.9 µM); in experiment [12] (read-out: MIC) it was above 50 µg/mL; in [13] (read-out: MIC), above 50 µg/mL; in experiment [14] (read-out: MIC), above 50 µg/mL; in the experiment with Mycoplasma gallisepticum (Mycoplasmoides gallisepticum) it was 0.78 µg/mL (≈ 0.763 µM). The results for the MIC against Mycoplasma synoviae (Mycoplasmopsis synoviae), with Mycoplasma hyorhinis (read-out: MIC) and against Mycoplasma hyopneumoniae (Mesomycoplasma hyopneumoniae) were 6.25 µg/mL (≈ 6.11 µM), above 50 µg/mL and above 25 µg/mL, respectively.
As to “20-DH-20-O-(Phenylsulfinyl)desmycosin [Compound 25]”, the MIC in experiment [1] (Staphylococcus aureus X1.1, agar dilution) worked out at 0.25 µg/mL; in experiment [3] (Staphylococcus aureus X400, methicillin-resistant strain, agar dilution) it was 0.25 µg/mL; in [4] (Staphylococcus aureus S13E, agar dilution), 0.25 µg/mL; in experiment [5] (Staphylococcus epidermidis EPI1, agar dilution), 0.25 µg/mL; in [6] (Staphylococcus epidermidis EPI2, agar dilution) it was 0.12 µg/mL; in experiment [7] (Streptococcus pyogenes C203, agar dilution), 0.25 µg/mL. In addition, the MIC in [9] (Streptococcus Group D X66, agar dilution) is 4 µg/mL; against Streptococcus Group 9960 it was 4 µg/mL; in experiment [10] (agar dilution), 8 µg/mL; in experiment [11] (agar dilution), 4 µg/mL; against Staphylococcus aureus (broth-dilution microtiter), 0.39 µg/mL; in the experiment with Streptococcus bovis 80, 3.12 µg/mL. Also, the MIC in [12] is 12.5 µg/mL; in experiment [13], 6.25 µg/mL; in [14] it was 12.5 µg/mL; in the experiment on Mycoplasma gallisepticum (Mycoplasma gallisepticum, broth-dilution microtiter), below 0.05 µg/mL; in the experiment on Mycoplasma synoviae (Mycoplasma synoviae, broth-dilution microtiter), 0.19 µg/mL; in the experiment on Mycoplasma hyorhinis, “-- (Not active at 50 mcg/ml, the highest level tested)”. In addition, the MIC against Mycoplasma hyopneumoniae (Mycoplasma hyopneumoniae, broth-dilution microtiter) worked out at 12.5 µg/mL. Further, the “ED50, Oral” value in experiment [15] (oral) is listed as 45 mg/kg × 2. Besides, the “ED50, Subcutaneous” value in experiment [15] (subcutaneous) is on record as 5.0 mg/kg × 2.
For the compound `CCC1OC(=O)CC(O)C(C)C(OC2OC(C)C(OC3CC(C)(O)C(O)C(C)O3)C(N(C)C)C2O)C(CCSc2ccccc2)CC(C)C(=O)C=CC(C)=CC1COC1OC(C)C(O)C(OC)C1OC` (stereo not drawn) [Compound 6, 20-DH-DO-20-(Phenylthio)tylosin], the MIC in [1] (Staphylococcus aureus, X1.1) is 1 µg/mL (≈ 0.99 µM); in experiment [2] it was 1 µg/mL (≈ 0.99 µM); in experiment [3] (Staphylococcus aureus X400, methicillin-resistant strain, agar dilution, read-out: MIC), 2 µg/mL (≈ 1.98 µM); in [4] (Staphylococcus aureus, S13E), 1 µg/mL (≈ 0.99 µM); in experiment [5] (Staphylococcus epidermidis EPI1, agar dilution, read-out: MIC), 2 µg/mL (≈ 1.98 µM); in experiment [6] (setting [16]), 1 µg/mL (≈ 0.99 µM). The MIC in experiment [7] (Streptococcus pyogenes, C203) is 4 µg/mL (≈ 3.96 µM); in experiment [8] (Streptococcus pneumoniae), 64 µg/mL (≈ 63.3 µM); in experiment [9], above 128 µg/mL; in the experiment on Streptococcus Group 9960 (GROUP9960, read-out: MIC), above 128 µg/mL; in [10] (read-out: MIC) it was above 128 µg/mL; in [11] (read-out: MIC) it was above 128 µg/mL. Moreover, the MIC against Staphylococcus aureus is 3.12 µg/mL (≈ 3.09 µM); in the experiment on Streptococcus bovis 80 (setting [17]), above 50 µg/mL; in experiment [12] (read-out: MIC), above 50 µg/mL; in [13] (read-out: MIC), above 50 µg/mL; in experiment [14] (read-out: MIC), above 50 µg/mL; in the experiment on Mycoplasma gallisepticum (Mycoplasmoides gallisepticum, Mycoplasma gallisepticum, broth-dilution microtiter, read-out: MIC), 0.78 µg/mL (≈ 0.772 µM). The MIC in the experiment with Mycoplasma synoviae (Mycoplasmopsis synoviae, Mycoplasma synoviae, broth-dilution microtiter, read-out: MIC) is 12.5 µg/mL (≈ 12.4 µM); with Mycoplasma hyorhinis (read-out: MIC), above 50 µg/mL; with Mycoplasma hyopneumoniae (Mesomycoplasma hyopneumoniae, Mycoplasma hyopneumoniae, broth-dilution microtiter, read-out: MIC), above 25 µg/mL.
